Measured values published in patent US8119614B2, “Substitution derivatives of N6-benzyladenosine, methods of their preparation, their use for preparation of drugs, cosmetic preparations and growth regulators, pharmaceutical preparations, cosmetic preparations and growth regulators containing these compounds” (Ustav Experimentalni Botaniky Akademie Ved Ceske Republiky, priority 2002, dated 2012).
Entries after “also recorded” stand apart in the source; their conditions may differ.

Columns and labels:
[1] = system: breast carcinoma cell lines MCF-7; assay: In vitro cytotoxic activity, Calcein AM assay, MCF7; format: cell-based, human; conditions: 72 hours, read-out: IC 50 MCF7
Method in brief: (§1)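 Following 24 h pre-incubation of 10^4 cells per well, test compound is added in six 4-fold steps and left for 72 h at 37 °C. Surviving cells are quantified by Calcein AM cleavage (1 h), and GI50 is calculated from the dose-response curve.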

[2] = system: Human T-lymphoblastic leukemia cell line CEM; assay: In vitro cytotoxic activity, Calcein AM assay, CEM; format: cell-based; conditions: 72 hours
Method in brief: as §1

promyelocytic HL-60 = assay: In vitro cytotoxic activity, Calcein AM assay, HL60; format: cell-based, human; conditions: 72 hours, read-out: IC 50 HL60
Method in brief: as §1

HOS = assay: In vitro cytotoxic activity, Calcein AM assay, HOS; format: cell-based; conditions: 72 hours
mouse fibroblasts NIH3T3 = assay: In vitro cytotoxic activity, Calcein AM assay, NIH-3T3; format: cell-based; conditions: 72 hours, read-out: IC 50 NIH-3T3
Method in brief: as §1

[3] = system: human malignant melanoma cells G361; assay: In vitro cytotoxic activity, Calcein AM assay, G-361; format: cell-based; conditions: 72 hours, read-out: IC 50 G-361
Text: One of the parameters used, as the basis for cytotoxicity assays, is the metabolic activity of viable cells. For example, a microtiter assay, which uses the Calcein AM, is now widely used to quantitate cell proliferation and cytotoxicity. For instance, this assay is used in drug screening programs and in chemosensitivity testing. Because only metabolically active cells cleave Calcein AM, these assays detect viable cells exclusively. The quantity of reduced Calcein AM corresponds to the number of vital cells in the culture.
Human T-lymphoblastic leukemia cell line CEM; promyelocytic HL-60 and monocytic U937 leukemias; breast carcinoma cell lines MCF-7; cervical carcinoma cells HELA; mouse fibroblasts NIH3T3; human erythroleukaemia K562 and human malignant melanoma cells G361 were used for routine screening of compounds. The cells were maintained in Nunc/Corning 80 cm^2 plastic tissue culture flasks and cultured in cell culture medium (DMEM with 5 g/l glucose, 2 mM glutamine, 100 U/ml penicillin, 100 μg/ml streptomycin, 10% fetal calf serum and sodium bicarbonate).
The cell suspensions that were prepared and diluted according to the particular cell type and the expected target cell density (10^4 cells per well based on cell growth characteristics) were added by pipette (80 μl) into 96/well microtiter plates. Inoculates were allowed a pre-incubation period of 24 hours at 37° C. and 5% CO2 for stabilisation. Four-fold dilutions of the intended test concentration were added at time zero in 20 μl aliquots to the microtiter plate wells. Usually, test compound was evaluated at six 4-fold dilutions. In routine testing, the highest well concentration was 166.7 μM, but it can be the matter of change dependent on the agent. All drug concentrations were examined in duplicates. Incubations of cells with the test compounds lasted for 72 hours at 37° C., in 5% CO2 atmosphere and 100% humidity. At the end of incubation period, the cells were assayed by using the Calcein AM. Ten microliters of the stock solution were pipetted into each well and incubated further for 1 hours. Fluorescence (FD) was measured with the Labsystem FIA Reader Fluoroscan Ascent (UK). The tumour cell survival (GI50) was calculated using the following equitation: GI50=(FDdrug exposed well/mean FDcontrol wells)×100%. The GI50 value, the drug concentration lethal to 50% of the tumour cells, was calculated from the obtained dose response curves (FIG. 3).

[4] = system: human erythroleukaemia K562; assay: In vitro cytotoxic activity, Calcein AM assay, K-562; format: cell-based; conditions: 72 hours, read-out: IC 50 K-562
Method in brief: as §1

Human lymphocytes = assay: Immunosuppressive activity: concanavalin A induced lymphocyte proliferation, [^3H]-TdR incorporation; format: cell-based; conditions: 72 hours, read-out: Human lymphocytes ED50
Procedure: Human heparinized peripheral blood was obtained from healthy volunteers by cubital vein punction. The blood was diluted in PBS (1:3) and mononuclear cells were separated by centrifugation in Ficoll-Hypaque density gradient (Pharmacia, 1.077 g/ml) at 2200 rpm for 30 minutes. Following centrifugation, lymphocytes were washed in PBS and resuspended in cell culture medium (RMPI 1640, 2 mM glutamine, 100 U/ml penicillin, 100 μg/ml streptomycin, 10% fetal calf serum and sodium bicarbonate).
The cells were diluted at target density of 1,100,000 cells/ml were added by pipette (180 μl) into 96/well microtiter plates. Four-fold dilutions of the intended test concentration were added at time zero in 20 μl aliquots to the microtiter plate wells. Usually, test compound was evaluated at six 4-fold dilutions. In routine testing, the highest well concentration was 266.7 μM. All drug concentrations were examined in duplicates. All wells with exception of unstimulated controls were activated with 50 μl of concanavalin A (25 μg/ml). Incubations of cells with test compounds lasted for 72 hours at 37° C., in 5% CO2 atmosphere and 100% humidity. At the end of incubation period, the cells were assayed by using the [^3H]-TdR:
Cell cultures were incubated with 0.5 μCi (20 μl of stock solution 500 μCi/ml) per well for 6 hours at 37° C. and 5% CO2. The automated cell harvester was used to lyse cells in water and adsorb the DNA onto glass-fiber filters in the format of microtiter plate. The DNA incorporated [^3H]-TdR was retained on the filter while unincorporated material passes through. The filters were dried at room temperature overnight, sealed into a sample bag with 10-12 ml of scintillant. The amount of [^3H]-TdR present in each filter (in cpm) was determined by scintillation counting in a Betaplate liquid scintillation counter. The effective dose of immunosuppressant (ED) was calculated using the following equation: ED=(CCPMdrug exposed well/mean CCPMcontrol wells)×100%. The ED50 value, the drug concentration inhibiting proliferation of 50% of lymphocytes, was calculated from the obtained dose response curves.

[5] = system: Amaranthus caudatus cotyledon/hypocotyl explants; assay: Amaranthus bioassay (betacyanin content); format: in vivo
Method in brief: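 Surface-sterilised Amaranthus caudatus var. atropurpurea seeds were germinated 72 h at 25° C. in darkness, then de-rooted. Cotyledon/hypocotyl explants (20 per dish) were incubated under green safe light on filter paper with 1 ml medium of 10 μmol NA2HPO4-KH2PO4, pH 6.8, 5 μmol tyrosine and cytokinin (10^-8M to 10^-4M) for 48 h at 25° C. in darkness. Betacyanin was extracted in […] acetic acid and measured by absorbance at 537 nm and 620 nm.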

Rosa multiflora = assay: In vitro and post vitro multiplication and rooting of rose; format: in vivo
glutamate kinase = assay: Field studies: glutamate kinase activity in spring wheat; format: in vivo; parameters: tested at 1 µM (10^-6 M spray solution); conditions: 6 days after the application, Control = 100.0
Procedure: (§2) Height of plants, leaf area, dry matter, development of vegetation opex—bases of future spike, and number of spikelets were monitored after germination in 14 day intervals, […]. From these primary data, values used in production physiology are derived, as leaf area index LAI, photosynthetic capacity LAD, tillering potential. Experiments with treatment of spring wheat crop (variety Sandra) are carried out on the field (area 10 m^2, four replicates) by spraying 1 litr of 10^−6 molar solution of tested compound (cytokinin) at the transition period from jointing stage to athesis stage (49 DC).
Glutamate kinase activity was determined 6 days after the application. This enzyme was selected because of good corelation of its activity changes and state of transport of endogenous substances (nutrients from roots, assimilates to cariopsis), respiration, energy (adenosintriphosphate) transfer, storage of nutrients, growth and developmental proceses, and also metabolism of proline, which is known from literature to play an important role in adaptation against stress (unsuitable stand, drought, hypersalinity, coldness) and also in regulation of both theoretical and real production (restriction of seed number reduction per spikelet). Enzyme glutamate kinase catalyses to glutamate conversion into γ glutamylphosphate, which is first step of proline biosynthesis from glutamate. Therefore, this enzyme is, as essential precursor of other plant metabolic pathways, marker of stress inhibition. It can be determined spectrofotometrically (Vasáková, 1980). For analysis, acetone powder is prepared from a sample by standard method, subsequently extracted by 0.05M potassium-phosphate buffer pH=7.2 and centrifugated. Glutamate kinase fraction is precipitated using crystalline ammonium sulfate and after dialysis, glutamate kinase activity is determined spectrophotometrically. Proline accumulation increased by stress corresponds as a “feedback” to glutamate kinase inhibition.

Rosa hybrida ‘Pailin’ = assay: Early shoot senescence inhibition of tissue cultured roses; format: in vivo; conditions: 10 μM in medium
Procedure: Rosa hybrida ‘Pailin’ (a cut rose) was cultured in 350 ml vessels with a screw on polycarbonate lid. Each culture vessel contained 100 ml autoclaved medium (120° C., 20 min). The cultures were maintained at 23±2° C. under a 16 h photoperiod at […] m^−2 s^−1 PAR. The basal medium (MBR) contained Murashige and Skoog (1962) macroelements, microelements and vitamins, 36.7 mg/l NaFeEDTA, 50 mg/l NaFeEDDHA, […], 30 g/l sucrose, 100 mg/l glycine, 50 mg/l calcium pantothenate, 100 mg/l L-glutamine and 7 g/l agar-agar. This medium was supplemented with 10 μM of the tested cytokinin. New cytokinins were filter sterilised and added after autoclaving the medium in the vessels. 6-Benzylaminopurine (BAP) was used as a standard compound; the control medium didn't contain any cytokinin. After a culture period of 6 weeks, scoring senescence symptoms was started.

[6] = system: spring wheat (variety Sandra); assay: Field studies: yield analysis of spring wheat crop; format: in vivo; conditions: spray of 10^−6 molar solution, Control = 100.0
Procedure: Crops (over the 4-year period) of spring wheat were sown in the experimental fields of Czech Agriculture University (CZU) (region of sugar beet production type) at a seeding rate of 400 germinative grains·m^−2 into ploughed and shoddy soil containing 116.1 mg/kg P, 228.3 mg/kg K, and 211.8 mg/kg Mg (agrochemical analyses were done at Department of Pedology CZU) (interval between ploughing and sowing is usually 3-4 days, longer only in case of adverse weather conditions). Preceding crop was rape. Soil preparation was done by the classical way using skid and harrow and after seeding is rolled.
as §2
Yield analysis, evaluating spike lenght and seed number per spikelet (Σ Z/K) were carried out for 30 plant per each variant, yield from 1 m^2 and 1000 grain weight (HTS) was determined from 8 replicates, yield per ha was subsequently calculated.

[7] = Ex vitro, after four weeks of acclimatising

Row | Structure (SMILES) | IC50 [1] [µM] | IC50 [2] [µM] | IC50 (promyelocytic HL-60) [µM] | IC50 (HOS) [µM] | IC50 (mouse fibroblasts NIH3T3) [µM] | IC50 [3] [µM] | IC50 [4] [µM] | EC50 (Human lymphocytes) [µM] | other results
1 | OC[C@H]1O[C@@H](n2cnc3c(NCc4cccc(Cl)c4O)ncnc32)[C@H](O)[C@@H]1O [2-hydroxy-3-chlorobenzylamino, 6-(2-hydroxy-3-chlorobenzylamino)purine riboside] | 15 | 0.3 | 0.1 | > 167 | > 167 | 128 | 10.7 | 2.1 | –
2 | COc1ccc(CNc2ncnc3c2ncn3[C@@H]2O[C@H](CO)[C@@H](O)[C@H]2O)c(O)c1 [2-hydroxy-4-methoxybenzylamino, 6-(2-hydroxy-4-methoxybenzylamino)purine riboside] | – | – | – | – | – | – | – | 1.5 | –
3 | OC[C@H]1O[C@@H](n2cnc3c(NCc4ccccc4O)ncnc32)[C@H](O)[C@@H]1O [2-hydroxybenzylamino, 6-(2-hydroxybenzylamino)purine riboside] | 11.4 | 0.7 | 0.42 | 2.8 | 43.2 | > 167 | 88 | 4.8 | –
4 | OC[C@H]1O[C@@H](n2cnc3c(NCc4ccc(O)c(O)c4)ncnc32)[C@H](O)[C@@H]1O [3,4-dihydroxybenzylamino, 6-(3,4-dihydroxybenzylamino)purine riboside] | – | – | – | – | – | – | – | 8.3 | Concentration with highest activity ([5]; 48 h dark): 10^−4 mol · l^−1; Activity (%) [10^−5 mol · l^−1 BAP = 100%] ([5]; at concentration with highest activity): 8 ± 3%
5 | OC[C@H]1O[C@@H](n2cnc3c(NCc4cccc(O)c4)ncnc32)[C@H](O)[C@@H]1O [3-hydroxybenzylamino, 6-(3-hydroxybenzylamino)purine riboside] | > 167 | 51.9 | 23.7 | > 167 | > 167 | > 167 | > 167 | 10.7 | –
6 | c1ccc(CNc2ncnc3nc[nH]c23)cc1 [BAP, 6-benzylaminopurine, reference compound] | – | – | – | – | – | – | – | – | shoot multiplication and rooting (in words) (Rosa multiflora; 10 μM in medium): high shoot multiplication rate, but the shoots rooted badly; Root number per plant (Rosa multiflora; [7]): 0.6; Total root length per plant (cm) (Rosa multiflora; [7]): 1.1 cm; Flower number per explant (Rosa multiflora; In vitro, 10 μM, 8 weeks): 0.00; Number of new shoots per explant (Rosa multiflora; In vitro, 10 μM, 8 weeks): 3.8; Root number per explant (Rosa multiflora; In vitro, 10 μM, 8 weeks): 0.0; Total root length per explant (cm) (Rosa multiflora; In vitro, 10 μM, 8 weeks): 0.0 cm; GK % (glutamate kinase activity) (glutamate kinase): 108.2%; senescence / dying of rose explants (in words) (Rosa hybrida ‘Pailin’): the relative number of dead plants looks like a sigmoid curve; also recorded: dead Rosa explant; HTS (%) (1000 grain weight) [6]: 102.0%; Yield(%) [6]: 115.4%; Σ Z/K (%) (seed number per spikelet) [6]: 111.9%; Σ spike/m^2 (%) [6]: 101.1%
7 | OC[C@H]1O[C@@H](n2cnc3c(NCc4ccccc4)ncnc32)[C@H](O)[C@@H]1O [BAPR, 6-benzylaminopurine riboside, reference compound] | – | – | – | – | – | – | – | – | GK % (glutamate kinase activity) (glutamate kinase): 154.1%; HTS (%) (1000 grain weight) [6]: 103.8%; Yield(%) [6]: 121.9%; Σ Z/K (%) (seed number per spikelet) [6]: 114.3%; Σ spike/m^2 (%) [6]: 102.7%
8 | Oc1cccc(CNc2ncnc3nc[nH]c23)c1 [mT, 6-(3-hydroxybenzylamino)purine] | – | – | – | – | – | – | – | – | senescence / dying of rose explants (in words) (Rosa hybrida ‘Pailin’): the situation improved
